Laboratory results from patent US20160128952A1, “Pharmaceutical Combination” (Gruenenthal GmbH, priority 2006, published 2016).

Test system: inflammatory pain
Assay: Randall-Selitto test in rats (carrageenin-induced paw oedema, pressure pain)
Assay type: in vivo, rat
Experimental: The weight ratios of the components (a) and (b) that will lead to a supra-additive effect (synergistic effect) of the inventive pharmaceutical composition may be determined via the test of Randall and Selitto as described in Arch. Int. Pharmacodyn., 1957, 111: 409 to 419, which is a model for inflammatory pain. The respective part of the literature is hereby incorporated by reference and forms part of the present disclosure.
By means of injection of 0.1 ml of Carrageenin-suspension ventrally into a hind paw of a rat an oedema is induced, on which pain is generated 4 hours later by continuously increasing pressure with a stamp (2 mm tip diameter). The antinociceptive and antihyperalgesic activity of the tested substance is determined at different points in time after administration of the substance. The measured value to be determined and at the same time also the end point of the pain test is the pressure at which the vocalisation reaction of the rat occurs. The percentage maximum possible effect (%MPE) is calculated. The maximum pressure of the stamp is 250 g. The group size is n=10.
The interactions studies presented herein were performed using equieffective doses of the two components, calculated from the ratio of the respective ED50 values of the components if administered alone. […]

SMILES | analgesic effect (in words) (Paracetamol alone, i.p.) | ED50 (Rattus norvegicus, iv, 0.25 h, i.v., 15 min p. appl. (peak effect), %MPE, vocalisation pressure, n=10, read-out: ED50 (confidence interval) of A applied alone)
CC(=O)Nc1ccc(O)cc1 [Paracetamol] | dose-dependent analgesic effect | –
CC[C@@H](c1cccc(O)c1)[C@@H](C)CN(C)C [A, (1R,2R)-3-(3-Dimethylamino-1-ethyl-2-methyl-propyl)-phenol] | – | 1.88 mg/kg
